Results reported in patent US20100092402A1, “TREATMENT OF RESPIRATORY DISEASE” (Mucokinetica Ltd., priority 2007, published 2010).

Tests used:
[1] = tested on: cystic fibrosis transmembrane regulator (CFTR); assay: Short circuit current recording of HBE cells in Ussing chambers (forskolin ΔIsc); format: cell-based, human; settings: for effect on forskolin ΔIsc compared to control: 90 min pre-treatment
Protocol: Differentiated HBE cells grown to confluence at an air-liquid interface for 15 to 29 days were used to study substances for ability to achieve long duration down regulation of the epithelial amiloride-sensitive sodium channel (ENaC).
Step 1: Treatment with substance. For each group of cells treated with a substance, 30 μl of 100 times final concentration of substance was added to the 3 ml basolateral culture medium, mixed and 150 μl of the resultant basolateral fluid was transferred to the apical surface for 5 min. For non-treatment control groups of basolateral fluid with no added substance was transferred to the apical surface. After 5 min. equilibration the excess apical fluid was then transferred back to the basolateral side of the culture well.
Step 2: Variable period of incubation with the substance. Dependent on the individual experiment the cells were returned to the 37° C. incubator for periods of 0 min. to 120 min.
Step 3: Period of substance washout with fresh culture medium. For experiments to study the duration of a substance response the HBE cells on Snapwell inserts were washed with fresh culture medium (no added substance) at 37° C. and placed in fresh 6-well plates containing 3 ml fresh culture medium (no added substance) on the basolateral side. […]
Step 5: Short circuit current (Isc) measurement. […] Silver/silver chloride electrodes (Costar Ltd., UK) were used to monitor Isc, which was recorded continuously throughout each experiment using AcqKnowledge III for MP100WSW data acquisition software (Biopac, Linton Instruments, UK). Transepithelial resistance (RT) was determined every minute by delivering a 5 mV pulse for 3 seconds and recording the change in ISS, over the 3 second period (ΔIsc). RT was calculated using the Ohm's law relationship RT=[V(5 mV)/ΔIsc].
At 37 min. […] The magnitude of the CFTR Isc response to forskolin was determined for each culture by measuring the difference between Isc immediately prior to addition of forskolin and at plateau at approximately 6 min. following addition of the agent (Forskolin ΔIsc)

prostasin = settings: treatment for 24 h; cited from earlier work

## N=C(N)c1ccc2cc(OC(=O)c3ccc(N=C(N)N)cc3)ccc2c1 [6-amidino-2-napthyl 4-guanidinobenzoate]
[1]; 1 μM
  effect on forskolin ΔIsc compared to control: no significant effect
[1]; 1 μM, pre-treatment time range 5 min to 60 min
  forskolin response, treatment vs control: No significant difference
[1]; dose range 30 nM to 3 μM
  effect on forskolin ΔIsc compared to control: without effect
prostasin
  prostasin secretion into culture medium: reduced prostasin secretion
